What was measured:
[1] = biological target: T1, Amine oxidase [flavin-containing] B (Homo sapiens, UniProt P27338); assay: Inhibition of recombinant MAO-B (unknown origin) assessed as reduction in 4-hydroxyquinoline level using kynuramine as a substrate at 1 uM incubated for 20 mins by discontinuous fluorimetric assay relative to control; conditions: read-out: INH
T1 sequence (P27338 whole entry): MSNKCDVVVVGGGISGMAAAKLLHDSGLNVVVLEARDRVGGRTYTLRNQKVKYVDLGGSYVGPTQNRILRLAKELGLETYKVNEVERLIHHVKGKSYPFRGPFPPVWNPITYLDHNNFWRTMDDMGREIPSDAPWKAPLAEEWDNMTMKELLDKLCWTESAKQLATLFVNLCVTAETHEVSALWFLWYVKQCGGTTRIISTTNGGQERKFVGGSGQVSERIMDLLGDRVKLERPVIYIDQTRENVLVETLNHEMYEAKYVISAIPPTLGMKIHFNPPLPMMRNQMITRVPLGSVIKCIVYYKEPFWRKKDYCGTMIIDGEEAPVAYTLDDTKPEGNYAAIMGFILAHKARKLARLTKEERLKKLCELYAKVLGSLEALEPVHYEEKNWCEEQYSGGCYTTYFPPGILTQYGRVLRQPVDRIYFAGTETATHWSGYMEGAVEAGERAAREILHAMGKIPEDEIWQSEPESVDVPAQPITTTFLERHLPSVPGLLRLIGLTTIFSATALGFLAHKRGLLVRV

[2] = biological target: T2, Amine oxidase [flavin-containing] A (Homo sapiens, UniProt P21397); assay: Inhibition of recombinant MAO-A (unknown origin) assessed as reduction in 4-hydroxyquinoline level using kynuramine as a substrate at 1 uM incubated for 20 mins by discontinuous fluorimetric assay relative to control
T2 sequence (P21397 whole entry): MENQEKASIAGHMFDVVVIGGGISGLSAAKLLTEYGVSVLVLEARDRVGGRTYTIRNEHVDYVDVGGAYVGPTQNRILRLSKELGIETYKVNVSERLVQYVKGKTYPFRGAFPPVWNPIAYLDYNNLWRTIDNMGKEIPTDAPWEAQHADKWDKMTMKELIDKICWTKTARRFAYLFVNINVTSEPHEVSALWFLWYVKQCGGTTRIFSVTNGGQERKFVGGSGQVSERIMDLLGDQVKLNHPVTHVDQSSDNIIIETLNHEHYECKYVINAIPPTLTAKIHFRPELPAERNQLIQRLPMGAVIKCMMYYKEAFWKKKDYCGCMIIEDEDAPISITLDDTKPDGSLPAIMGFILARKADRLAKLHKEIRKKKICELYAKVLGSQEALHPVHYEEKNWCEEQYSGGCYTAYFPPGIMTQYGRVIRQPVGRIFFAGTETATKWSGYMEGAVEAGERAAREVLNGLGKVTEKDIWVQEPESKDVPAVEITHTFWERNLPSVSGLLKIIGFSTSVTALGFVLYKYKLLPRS

Cholinesterase [3] = biological target: T3, Cholinesterase (Equus caballus, UniProt P81908); assay: Inhibition of equine serum BuChE using S-butyrylthiocholine iodide as a substrate measured for 125 secs by DNTB reagent based Ellman's method; format: cell-free
T3 sequence (P81908 whole entry): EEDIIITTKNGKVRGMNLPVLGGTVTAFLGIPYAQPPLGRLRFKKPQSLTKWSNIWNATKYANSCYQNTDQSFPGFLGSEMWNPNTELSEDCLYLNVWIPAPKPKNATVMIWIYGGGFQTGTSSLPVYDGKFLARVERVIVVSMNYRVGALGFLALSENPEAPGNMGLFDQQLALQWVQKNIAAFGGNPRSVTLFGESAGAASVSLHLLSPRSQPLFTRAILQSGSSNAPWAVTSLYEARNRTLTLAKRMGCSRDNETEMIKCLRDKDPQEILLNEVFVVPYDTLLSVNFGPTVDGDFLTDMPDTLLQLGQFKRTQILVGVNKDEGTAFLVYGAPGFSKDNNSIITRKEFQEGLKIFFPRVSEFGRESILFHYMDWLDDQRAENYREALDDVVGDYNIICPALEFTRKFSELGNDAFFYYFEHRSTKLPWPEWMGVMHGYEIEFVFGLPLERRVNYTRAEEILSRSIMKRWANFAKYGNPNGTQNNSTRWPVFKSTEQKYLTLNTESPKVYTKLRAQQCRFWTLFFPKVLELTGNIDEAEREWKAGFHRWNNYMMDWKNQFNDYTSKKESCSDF

Acetylcholinesterase [4] = biological target: T4, Acetylcholinesterase (Electrophorus electricus, UniProt O42275); assay: Inhibition of electric eel AChE using […] as a substrate measured for 125 secs by DNTB reagent based Ellman's method
T4 sequence (O42275 whole entry): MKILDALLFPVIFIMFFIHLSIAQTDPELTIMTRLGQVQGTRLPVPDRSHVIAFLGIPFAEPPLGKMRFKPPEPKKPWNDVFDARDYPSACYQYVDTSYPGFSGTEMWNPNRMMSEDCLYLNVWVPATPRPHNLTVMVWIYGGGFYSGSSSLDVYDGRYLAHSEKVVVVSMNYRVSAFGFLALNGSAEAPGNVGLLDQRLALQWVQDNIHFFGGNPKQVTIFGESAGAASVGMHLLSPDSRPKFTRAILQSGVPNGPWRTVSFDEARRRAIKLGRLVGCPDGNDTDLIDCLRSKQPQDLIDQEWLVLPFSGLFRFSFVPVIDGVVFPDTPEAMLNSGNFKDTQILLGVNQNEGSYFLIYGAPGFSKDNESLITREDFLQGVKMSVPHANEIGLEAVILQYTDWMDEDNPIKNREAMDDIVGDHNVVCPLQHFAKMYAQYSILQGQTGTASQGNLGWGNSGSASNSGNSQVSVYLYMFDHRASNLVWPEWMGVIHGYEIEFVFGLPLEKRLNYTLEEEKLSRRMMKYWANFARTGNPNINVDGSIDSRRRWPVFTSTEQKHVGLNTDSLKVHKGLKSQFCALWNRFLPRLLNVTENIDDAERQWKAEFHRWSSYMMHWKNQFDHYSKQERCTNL

Cholinesterase [5] = biological target: T3, Cholinesterase; assay: Mixed type inhibition of equine serum BuChE using S-butyrylthiocholine iodide as a substrate by Cornish-Bowden plot analysis; format: cell-free
Acetylcholinesterase [6] = biological target: T4, Acetylcholinesterase; assay: Inhibition of electric eel AChE using […] as a substrate by Cornish-Bowden plot analysis

Structure (SMILES) | IC50 (Cholinesterase [3]) [µM] | further results
C#CCN1C(=O)C(C(=O)NCc2ccccc2)(N2CCCC2=O)c2ccccc21 (stereo not drawn) | > 100 | inhibition at 1 µM [1]: 6.1%; inhibition at 1 µM [2]: 13.2%
CC(C)(C)NC(=O)C1(N2CCC2=O)C(=O)Nc2c(C(F)(F)F)cccc21 (stereo not drawn) | > 100 | 
O=C1CCCN1C1(C(=O)NC2CCCCC2)C(=O)Nc2ccccc21 (stereo not drawn) | 44 | 
C#CCN1C(=O)C(C(=O)NC(C)(C)C)(N2CCC2=O)c2ccccc21 (stereo not drawn) |  | inhibition at 1 µM [1]: 7.4%; inhibition at 1 µM [2]: 5.9%
CC(C)(C)NC(=O)C1(N2CCC2=O)C(=O)N(Cc2ccccc2)c2ccccc21 (stereo not drawn) | 51 | 
CC(C)(C)NC(=O)C1(N2CCC2=O)C(=O)Nc2ccccc21 (stereo not drawn) | > 100 | 
CC(C)(C)NC(=O)C1(N2CCCC2=O)C(=O)Nc2ccc(I)cc21 (stereo not drawn) | 68 | 
CN1C(=O)C(C(=O)NC(C)(C)CC(C)(C)C)(N2CCCC2=O)c2ccccc21 (stereo not drawn) | 18 | 
Cc1cc(C)c2c(c1)C(C(=O)NC(C)(C)C)(N1CCC1=O)C(=O)N2 (stereo not drawn) | 57 | 
CC(C)(C)NC(=O)C1(N2CCCC2=O)C(=O)N(Cc2ccccc2)c2ccccc21 (stereo not drawn) | 32 | 
CC(C)(C)NC(=O)C1(N2CCCC2=O)C(=O)Nc2ccc([N+](=O)[O-])cc21 (stereo not drawn) | 94 | IC50 (Acetylcholinesterase [4]): 45 µM
CC(C)(C)NC(=O)C1(N2CCCC2=O)C(=O)Nc2ccc(Br)cc21 (stereo not drawn) | > 100 | 
CC(C)(C)CC(C)(C)NC(=O)C1(N2CCCC2=O)C(=O)Nc2ccccc21 (stereo not drawn) | 8.4 | Ki (Cholinesterase [5]): 15 µM; IC50 (Acetylcholinesterase [4]): > 100 µM; Ki (Acetylcholinesterase [6]): 7.4 µM
CC(C)(C)NC(=O)C1(N2CCC2=O)C(=O)N(c2ccccc2)c2ccccc21 (stereo not drawn) | 22 | 
CN1C(=O)C(C(=O)NC(C)(C)C)(N2CCCC2=O)c2ccccc21 (stereo not drawn) | > 100 | 
O=C1CCCN1C1(C(=O)NCc2ccccc2)C(=O)Nc2ccccc21 (stereo not drawn) | 71 | 
CC(C)(C)NC(=O)C1(N2CCC2=O)C(=O)Nc2ccc([N+](=O)[O-])cc21 (stereo not drawn) | > 100 | 
CC(C)(C)CC(C)(C)NC(=O)C1(N2CCC2=O)C(=O)Nc2ccccc21 (stereo not drawn) | 42 | 
CC(C)(C)CC(C)(C)NC(=O)C1(N2CCC2=O)C(=O)N(Cc2ccccc2)c2ccccc21 (stereo not drawn) | 1.8 | Ki (Cholinesterase [5]): 4.8 µM; IC50 (Acetylcholinesterase [4]): > 100 µM; Ki (Acetylcholinesterase [6]): 1.8 µM
O=C1CCN1C1(C(=O)NCc2ccccc2)C(=O)Nc2ccccc21 (stereo not drawn) | > 100 | IC50 (Acetylcholinesterase [4]): > 100 µM
CC(C)(C)NC(=O)C1(N2CCC2=O)C(=O)Nc2ccc(I)cc21 (stereo not drawn) | 80 | 
CC(C)(C)NC(=O)C1(N2CCCC2=O)C(=O)N(c2ccccc2)c2ccccc21 (stereo not drawn) | 6.2 | Ki (Cholinesterase [5]): 18 µM; Ki (Acetylcholinesterase [6]): 6.1 µM
Cc1cc(C)c2c(c1)C(C(=O)NC(C)(C)C)(N1CCCC1=O)C(=O)N2 (stereo not drawn) | > 100 | 
CC(C)(C)NC(=O)C1(N2CCCC2=O)C(=O)Nc2ccccc21 (stereo not drawn) | 54 | 
C#CCN1C(=O)C(C(=O)NCc2ccccc2)(N2CCC2=O)c2ccccc21 (stereo not drawn) | > 100 | inhibition at 1 µM [1]: 7.6%; inhibition at 1 µM [2]: 8.9%
CC(C)(C)NC(=O)C1(N2CCC2=O)C(=O)Nc2ccc(Br)cc21 (stereo not drawn) | > 100 | 
C#CCN(C)CCCOc1ccc(Cl)cc1Cl [CLORGILINE] |  | inhibition at 1 µM [2]: 100%
C[C@H](NCc1ccc(OCc2cccc(F)c2)cc1)C(N)=O [SAFINAMIDE] |  | inhibition at 1 µM [2]: -1.6%
